The test system of experiment [1] is glucocorticoid receptor function. Put plainly: one or more of the above assays (GR binding and glucocorticoid receptor cell assays: aromatase, IL-6, TAT, MMTV-Luc, IL-8, ICAM-Luc). Format: cell-based. To be noted: assay not specified per compound.
Experiment [2] concerns the target T1, human glucocorticoid receptor (GR) complex (Homo sapiens, UniProt P04150).
T1 construct: made in house; host or cells: insect expression system (baculovirus lysate)
T1 sequence (P04150 1-777): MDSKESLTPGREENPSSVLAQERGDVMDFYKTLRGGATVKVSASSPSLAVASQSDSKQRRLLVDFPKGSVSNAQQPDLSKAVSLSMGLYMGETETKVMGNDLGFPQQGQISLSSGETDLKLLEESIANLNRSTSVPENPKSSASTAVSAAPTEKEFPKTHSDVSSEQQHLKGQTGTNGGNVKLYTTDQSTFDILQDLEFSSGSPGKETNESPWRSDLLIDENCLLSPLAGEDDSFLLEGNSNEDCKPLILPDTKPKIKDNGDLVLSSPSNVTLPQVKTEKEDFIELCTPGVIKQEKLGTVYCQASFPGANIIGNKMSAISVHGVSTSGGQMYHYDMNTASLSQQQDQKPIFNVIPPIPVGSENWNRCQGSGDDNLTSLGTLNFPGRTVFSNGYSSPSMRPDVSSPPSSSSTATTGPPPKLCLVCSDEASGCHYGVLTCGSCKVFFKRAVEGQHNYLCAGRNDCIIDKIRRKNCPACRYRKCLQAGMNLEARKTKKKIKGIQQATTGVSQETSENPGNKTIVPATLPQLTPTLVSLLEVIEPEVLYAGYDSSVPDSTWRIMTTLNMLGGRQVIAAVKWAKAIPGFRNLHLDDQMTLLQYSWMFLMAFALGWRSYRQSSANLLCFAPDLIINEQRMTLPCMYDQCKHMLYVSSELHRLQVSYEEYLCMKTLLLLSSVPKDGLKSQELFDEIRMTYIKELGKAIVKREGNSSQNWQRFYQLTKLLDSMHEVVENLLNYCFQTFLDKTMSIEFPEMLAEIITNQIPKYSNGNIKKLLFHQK
Put plainly: Glucocorticoid receptor competitive binding assay (fluorescence polarization, TAMRA-labeled dexamethasone probe). As to conditions: compounds of Formula (IA). On the procedure: Compounds of the invention were evaluated for binding to the steroid receptor by a fluorescence polarization competitive binding assay. Detailed descriptions for preparation of recombinant glucocorticoid receptor (GR) complex used in the assay is described in U.S. patent application Pub.
A. Glucocorticoid Receptor Competitive Binding Assay
Step 1. Characterization of the Fluorescent Probe
The wavelengths for maximum excitation and emission of the fluorescent probe should first be measured. An example of such a probe is rhodamine (TAMRA)-labeled dexamethasone.
The affinity of the probe for the steroid receptor was then determined in a titration experiment. The fluorescence polarization value of the probe in assay buffer was measured on an SLM-8100 fluorometer using the excitation and emission maximum values described above. Aliquots of expression vector lysate were added and fluorescence polarization was measured after each addition until no further change in polarization value was observed. Non-linear least squares regression analysis was used to calculate the dissociation constant of the probe from the polarization values obtained for lysate binding to the probe.
Step 2. Screening for Inhibitors of Probe Binding
This assay uses fluorescence polarization (FP) to quantitate the ability of test compounds to compete with tetramethyl rhodamine (TAMRA)-labeled dexamethasone for binding to a human glucocorticoid receptor (GR) complex prepared from an insect expression system. The assay buffer was: 10 mM TES, 50 mM KCl, 20 mM Na2MoO4.2H2O, 1.5 mM EDTA, 0.04% w/v CHAPS, 10% v/v glycerol, 1 mM dithiothreitol, pH 7.4. Test compounds were dissolved to 1 mM in neat DMSO and then further diluted to 10× assay concentration in assay buffer supplemented with 10% v/v DMSO. Test compounds were serially diluted at 10× assay concentrations in 10% DMSO-containing buffer in 96-well polypropylene plates. Binding reaction mixtures were prepared in 96-well black Dynex microtiter plates by sequential addition of the following assay components to each well: 15 μL of 10× test compound solution, 85 μL of GR-containing baculovirus lysate diluted 1:170 in assay buffer, and 50 μL of 15 nM TAMRA-labeled dexamethasone. Positive controls were reaction mixtures containing no test compound; negative controls (blanks) were reaction mixtures containing 0.7 μM to 2 μM dexamethasone. […] IC50 values were determined by iterative non-linear curve fitting of the FP signal data to a 4-parameter logistic equation.

`Cc1cc(C(C)(C)CC(O)(Cc2cc3ccccc3[nH]2)C(F)(F)F)ccc1F` (centres unmarked) [1,1,1-Trifluoro-4-(4-fluoro-3-methylphenyl)-2-(1H-indol-2-ylmethyl)-4-methylpentan-2-ol]: the “activity as agonists of the glucocorticoid receptor function in one or more of the above assays” value (“activity as agonists” for short) in experiment [1] is recorded as “potent agonists”. Besides, the “activity in the GR binding assay” value in experiment [2] was “potent activity”.
Regarding `COc1ccc(F)cc1C(C)(C)CC(O)(c1c(F)ccc2c(C)ccnc12)C(F)(F)F` (centres unmarked) [1,1,1-Trifluoro-4-(5-fluoro-2-methoxyphenyl)-2-(7-fluoro-4-methylquinolin-8-yl)-4-methylpentan-2-ol], the “activity as agonists” value in experiment [1] is on record as “potent agonists”. Moreover, the “activity in the GR binding assay” value in experiment [2] is “potent activity”.
Taken in the same sequence, the figures for `Cc1ccc(F)cc1C(C)(C)CC(O)(Cc1cc2nc(C#N)ccc2[nH]1)C(F)(F)F` (centres unmarked) [2-[4-(5-Fluoro-2-methylphenyl)-2-hydroxy-4-methyl-2-trifluoromethylpentyl]-1H-pyrrolo[3,2-b]pyridine-5-carbonitrile] were “potent agonists” and “potent activity”.
Turning to `CC(C)c1ccc(O)c(C(C)(C)CC(O)(Cc2[nH]c3ccccc3c2C#N)C(F)(F)F)c1` (centres unmarked) [2-[2-Hydroxy-4-(2-hydroxy-5-isopropylphenyl)-4-methyl-2-trifluoromethylpentyl]-1H-indole-3-carbonitrile], the “activity as agonists” value in experiment [1] is “potent agonists”. For the same compound, the “activity in the GR binding assay” value in experiment [2] is given as “potent activity”.
For `Cc1c(CC(O)(CC(C)(C)c2cccc(F)c2)C(F)(F)F)[nH]c2ccccc12` (centres unmarked) [1,1,1-Trifluoro-4-(3-fluorophenyl)-4-methyl-2-(3-methyl-1H-indol-2-ylmethyl)pentan-2-ol], the “activity as agonists” value in experiment [1] is listed as “potent agonists”. In addition, the “activity in the GR binding assay” value in experiment [2] is “potent activity”.
The matching figures for `CC(C)(CC(O)(Cc1ccnc(Br)c1)C(F)(F)F)c1cc(F)ccc1O` (centres unmarked) [2-[3-(2-Bromopyridin-4-ylmethyl)-4,4,4-trifluoro-3-hydroxy-1,1-dimethylbutyl]-4-fluorophenol]: “potent agonists” and “potent activity”.
For the compound `COC(=O)CCCNC(=O)c1ccc2[nH]c(CC(O)(CC(C)(C)c3cc(F)ccc3OC)C(F)(F)F)cc2c1` (centres unmarked) [4-({2-[4-(5-Fluoro-2-methoxyphenyl)-2-hydroxy-4-methyl-2-trifluoromethylpentyl]-1H-indole-5-carbonyl}amino)butyric acid methyl ester], the “activity as agonists” value in experiment [1] is “potent agonists”. Also, in experiment [2], the “activity in the GR binding assay” value was “potent activity”.
Taken in the same sequence, the figures for `Cc1ccc(C(C)(C)CC(O)(Cc2cc3ccccc3[nH]2)C(F)(F)F)cc1C` (centres unmarked) [4-(3,4-Dimethylphenyl)-1,1,1-trifluoro-2-(1H-indol-2-ylmethyl)-4-methylpentan-2-ol] were “potent agonists” and “potent activity”.
The matching figures for `COc1ccc(F)cc1C(C)(C)CC(O)(Cc1cc2c(Cl)nc(N)nc2[nH]1)C(F)(F)F` (centres unmarked) [2-(2-Amino-4-chloro-7H-pyrrolo[2,3-d]pyrimidin-6-ylmethyl)-1,1,1-trifluoro-4-(5-fluoro-2-methoxyphenyl)-4-methylpentan-2-ol]: “potent agonists” and “potent activity”.
The matching figures for `COc1ccc(C)cc1C(C)(C)CC(O)(Cc1ccnc2ccccc12)C(F)(F)F` (centres unmarked) [1,1,1-Trifluoro-4-(2-methoxy-5-methylphenyl)-4-methyl-2-quinolin-4-ylmethylpentan-2-ol]: “potent agonists” and “potent activity”.

These data come from patent publication US8741897B2, “Glucocorticoid mimetics, methods of making them, pharmaceutical compositions and uses thereof” (Boehringer Ingelheim Pharmaceuticals Inc., priority 2003, dated 2014).
